Measurements taken from patent US7105483B2, “Phosphinic pseudopeptide derivatives for the selective inhibition of the C-terminal active site of angiotensin I converting enzyme (ACE)” (Commissariat a l'Energie Atomique, priority 2002, dated 2006).
Read-outs that look alike come from different tables or passages of the source.

What was measured:
[1] = target: C-terminal site of human recombinant ACE (Homo sapiens, UniProt P12821); test: Inhibition constants with respect to the C-terminal site of ACE (quenched-fluorescence substrate); format: biochemical; details: first HPLC fraction; substrate Mca-Ala-Ser-Asp-Lys-DpaOH; 25° C., pH 6.8, 50 mM HEPES, 10 mM CaCl2, 200 mM NaCl
Description: (§1) Human recombinant ACE is used for this determination. Curves of inhibition of ACE with pseudopeptides A to G are obtained using the quenched-fluorescence substrate Mca-Ala: Mca-Ala-Ser-Asp-Lys-DpaOH (Mca: […]; DpaOH: N-3-(2,4-dinitrophenyl)-L-2,3-diaminopropionyl).
(§2) The first fraction collected during the purification of each of the pseudopeptides A to G by HPLC (peak 1 of FIG. 2 for pseudopeptide G) is used for these tests.
(§3) From the inhibition profiles obtained with this substrate, for each pseudopeptide A to G, it is possible to determine the constants Ki N and Ki C by following the procedure described by Dive et al..
(§4) The inhibition experiments were performed at 25° C., pH 6.8, 50 mM HEPES, 10 mM, CaCl2, 200 mM NaCl.

[2] = target: N-terminal site of human recombinant ACE (Homo sapiens, UniProt P12821); test: Inhibition constants with respect to the N-terminal site of ACE (quenched-fluorescence substrate); format: biochemical; details: first HPLC fraction; substrate Mca-Ala-Ser-Asp-Lys-DpaOH; 25° C., pH 6.8, 50 mM HEPES, 10 mM CaCl2, 200 mM NaCl
Description: as §1, §2, §3, §4

ACE = ACE (Homo sapiens, UniProt P12821); test: Inhibitory power of HPLC-isolated diastereoisomers/fractions with respect to ACE; format: biochemical; details: HPLC-isolated diastereoisomer / first fraction (peak 1)
Description: In this figure, 4 peaks corresponding to the 4 diastereoisomers present in pseudopeptide G are observed (these 4 peaks have an identical mass spectrum, mass observed MH^+=618.23, expected mass=617.23).

cleavage of bradykinin = test: In vivo cleavage (protection) of bradykinin in mice; details: 10 mg/kg of body weight; protection with perindopril arbitrarily set at 100%; C57BL6/J mice
Procedure: (§5) This study is performed on batches of male C57BL6/J mice (Iffa Credo) weighing 20 to 23 g each, each batch comprising 6 mice.
(§6) To do this, the mice are anaesthetized by means of an intraperitoneal administration of sodium pentobarbital (Sanofi) at a dose of 80 mg/kg of body weight. The right carotid artery is isolated and a catheter (PE10, 0.28×0.61, A-M Systems, Inc.) is inserted into this artery to allow the withdrawal of blood samples, while another catheter (FEP, 0.12×0.67, Carnegie Medecin) is inserted into the ipsilateral jugular vein to allow the administration of the substances. Throughout the experiment, the body temperature of the mice is maintained at 38° C. […]
(§7) Samples of arterial blood, of about 50 μl, are withdrawn 30, 60 and 90 seconds after injection of the angiotensin I mixture or of the bradykinin mixture to the mice that received these mixtures, and 1, 5, 10 and 15 minutes after the start of injection of the Ac-SDKP mixture to the mice that received the latter mixture. […] The exact amounts of blood withdrawn are determined by reweighing the tubes. […]

[3] = system: cleavage of the peptide Ac-SDKP; test: In vivo cleavage of the peptide Ac-SDKP in mice; details: 10 mg/kg of body weight, versus saline control
Procedure: as §5, §6, §7

[4] = mice; cited from earlier work
[5] = rats; cited from earlier work
[6] = system: degradation of the peptide N-acetyl Ser-Asp-Lys-Pro (Ac-SDKP); details: mice, reference [9]; cited from earlier work
[7] = system: conversion of angiotensin I into angiotensin II; test: In vivo cleavage of angiotensin I to angiotensin II in mice; details: perfusion over 30 minutes, C57BL6/J mice
Procedure: as §5, §6, §7

Sequence of ACE (P12821 30-1306): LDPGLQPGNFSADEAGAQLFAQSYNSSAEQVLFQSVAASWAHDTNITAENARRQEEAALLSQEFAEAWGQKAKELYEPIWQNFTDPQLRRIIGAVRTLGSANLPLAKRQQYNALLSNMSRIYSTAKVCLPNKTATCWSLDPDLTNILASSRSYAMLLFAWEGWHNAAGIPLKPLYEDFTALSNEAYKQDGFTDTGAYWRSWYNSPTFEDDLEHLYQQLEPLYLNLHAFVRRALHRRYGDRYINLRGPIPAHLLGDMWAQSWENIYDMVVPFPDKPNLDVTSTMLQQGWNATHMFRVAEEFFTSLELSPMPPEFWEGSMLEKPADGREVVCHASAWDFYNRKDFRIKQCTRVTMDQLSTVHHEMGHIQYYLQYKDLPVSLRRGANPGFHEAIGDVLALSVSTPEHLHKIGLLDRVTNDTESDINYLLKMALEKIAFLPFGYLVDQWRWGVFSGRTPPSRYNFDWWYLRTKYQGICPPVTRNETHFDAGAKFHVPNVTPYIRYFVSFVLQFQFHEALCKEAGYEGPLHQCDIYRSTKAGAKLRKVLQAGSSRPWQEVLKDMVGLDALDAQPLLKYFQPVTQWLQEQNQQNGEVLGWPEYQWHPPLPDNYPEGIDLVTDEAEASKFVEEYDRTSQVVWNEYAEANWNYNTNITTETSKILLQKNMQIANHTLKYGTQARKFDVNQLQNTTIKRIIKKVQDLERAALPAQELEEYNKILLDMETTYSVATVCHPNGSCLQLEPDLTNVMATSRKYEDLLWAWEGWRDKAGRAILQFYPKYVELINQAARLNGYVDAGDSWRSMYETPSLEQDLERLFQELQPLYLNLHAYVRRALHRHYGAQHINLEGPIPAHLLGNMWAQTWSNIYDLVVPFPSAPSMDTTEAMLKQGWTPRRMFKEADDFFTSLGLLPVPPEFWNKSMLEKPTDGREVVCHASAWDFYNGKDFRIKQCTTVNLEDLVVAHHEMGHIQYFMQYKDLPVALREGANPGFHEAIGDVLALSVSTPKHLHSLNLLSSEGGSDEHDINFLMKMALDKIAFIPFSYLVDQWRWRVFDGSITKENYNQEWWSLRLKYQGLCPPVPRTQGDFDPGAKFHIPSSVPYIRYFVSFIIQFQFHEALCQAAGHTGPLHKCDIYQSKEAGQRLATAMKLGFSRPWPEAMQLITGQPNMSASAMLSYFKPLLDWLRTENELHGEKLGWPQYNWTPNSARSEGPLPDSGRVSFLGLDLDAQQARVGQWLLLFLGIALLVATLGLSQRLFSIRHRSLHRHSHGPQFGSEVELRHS
Sequence of N-terminal site of human recombinant ACE (P12821 30-1306): as above
Sequence of C-terminal site of human recombinant ACE (P12821 30-1306): as above

Structure (SMILES) | Ki [1] [nM] | Ki [2] [nM] | inhibitory power with respect to ACE (ACE) | other results
CCC[C@H](N[C@@H](C)C(=O)N1[C@H](C(=O)O)C[C@@H]2CCCC[C@@H]21)C(=O)OCC [perindopril, reference compound] | – | – | – | degree of protection of bradykinin (cleavage of bradykinin): 100%
CC(NC(=O)CCP(=O)(O)C(Cc1ccccc1)NC(=O)OCc1ccccc1)C(=O)O (centres unmarked) [Pseudopeptide A, reference compound] | 0.8 | 0.8 | – | –
CC(NC(=O)C1CCCC1P(=O)(O)C(Cc1ccccc1)NC(=O)OCc1ccccc1)C(=O)O (centres unmarked) [Pseudopeptide B] | 20 | 450 | capable of inhibiting ACE | –
N=C(N)NCCCC(NC(=O)C1CCCC1P(=O)(O)C(Cc1ccccc1)NC(=O)OCc1ccccc1)C(=O)O (centres unmarked) [Pseudopeptide D] | 9 | 200 | capable of inhibiting ACE | –
CC(=O)N[C@@H](CC(=O)O)C(=O)N[C@@H](Cc1ccccc1)P(=O)(O)C[C@@H](C)C(=O)N[C@@H](C)C(N)=O [RXP407] | – | – | – | increase of the plasmatic content of Ac-SDKP relative to control mice ([3]; mice): 16 fold; metabolism in vivo [4]: not metabolized; metabolism in vivo [5]: not metabolized; inhibition of the degradation of Ac-SDKP in vivo [6]: capable of inhibiting the degradation
O=C(NC(Cc1ccccc1)P(=O)(O)C1CCCC1C(=O)N1CCCC1C(=O)O)OCc1ccccc1 (centres unmarked) [Pseudopeptide C] | 4 | 60 | capable of inhibiting ACE | –

Continued, in another order:

Ki [1] [nM] | Ki [2] [nM] | inhibitory power with respect to ACE (ACE) | Structure (SMILES) | other results
60 | 8000 | capable of inhibiting ACE | CC(NC(=O)OCc1ccccc1)P(=O)(O)C1CCCC1C(=O)NC(CCCc1c[nH]c2ccccc12)C(=O)O (centres unmarked) [Pseudopeptide E] | –
60 | 8000 | capable of inhibiting ACE | O=C(NC(CCc1ccccc1)P(=O)(O)C1CCCC1C(=O)NC(CCCc1c[nH]c2ccccc12)C(=O)O)OCc1ccccc1 (centres unmarked) [Pseudopeptide F] | –
3 | 10000 | shows inhibitory power | O=C(NC(Cc1ccccc1)P(=O)(O)C1CCCC1C(=O)NC(Cc1c[nH]c2ccccc12)C(=O)O)OCc1ccccc1 (centres unmarked) [Pseudopeptide G] | effect on the cleavage of the peptide Ac-SDKP ([3]; C57BL6/J mice): no significant effect; reduction of the angiotensin II/angiotensin I ratio measured in the control mice ([7]; 0.9 mg/kg of body weight): 50%; reduction of the angiotensin II/angiotensin I ratio measured in the control mice ([7]; 30 mg/kg of body weight): 90%; degree of protection of bradykinin (cleavage of bradykinin): 9.2%
